Measured values taken from US20110301155A1, “INDAZOLE COMPOUNDS FOR ACTIVATING GLUCOKINASE” (priority 2007, published 2011).
Where a name gives a salt, the structure may show the parent alone.

Each compound was assayed against T1, GK (recombinant glucokinase, residues 12-465 of the human enzyme) (Homo sapiens, UniProt P35557) (assay: Determination of GK activity value (luminescence assay)). Conditions: calculated maximal gain in GK enzyme activity at saturating compound concentration; 5 mM glucose, 5 μM ATP.
T1 construct: FLAG (C-terminal tag of vector pFLAG-CTC; only the vector is printed) (C); made in house; host or cells: Escherichia coli DH10b-T1r (pFLAG-CTC plasmid)
T1 sequence (P35557 12-465): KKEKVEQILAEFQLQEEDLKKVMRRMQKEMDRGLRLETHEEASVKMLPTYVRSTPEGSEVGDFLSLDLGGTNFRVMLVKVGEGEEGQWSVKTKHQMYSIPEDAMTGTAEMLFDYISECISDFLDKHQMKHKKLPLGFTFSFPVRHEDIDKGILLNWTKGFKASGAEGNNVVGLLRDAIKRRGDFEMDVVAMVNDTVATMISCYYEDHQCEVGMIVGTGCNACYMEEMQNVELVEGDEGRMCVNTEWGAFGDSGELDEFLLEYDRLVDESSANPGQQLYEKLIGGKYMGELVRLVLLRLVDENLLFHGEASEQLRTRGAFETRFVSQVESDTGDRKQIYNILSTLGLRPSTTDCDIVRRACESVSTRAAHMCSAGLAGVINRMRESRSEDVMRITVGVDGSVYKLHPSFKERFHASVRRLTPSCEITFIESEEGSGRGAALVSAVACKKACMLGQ
Type: biochemical
From the text: DNA encoding residues 12-465 of the full-length sequence of the human enzyme may be amplified by PCR and cloned into the HindIII and EcoRI sites of pFLAG-CTC (Sigma). SEQ.I.D. No. 1 corresponds to residues 12-465 of glucokinase.
The expression of recombinant glucokinase protein may be carried out by transformation and growth of DH10b-T1r E. coli cells incorporating the (pFLAG-CTC) plasmid in LB media. Protein expression can be induced in this system by the addition of IPTG to the culture medium.
Recombinant protein may be isolated from cellular extracts by passage over Sepharose Q Fast Flow resin (Pharmacia). This partially purified GK extract may then be further purified by a second passage over Poros HQ10 (Applied Biosystems). The purity of GK may be determined on denaturing SDS-PAGE gel. Purified GK may then be concentrated to a final concentration of 20.0 mg/ml. After flash freezing in liquid nitrogen, the proteins can be stored at −78° C. in a buffer containing 25 mM TRIS-HCl pH 7.6, 50 mM NaCl, and 0.5 mM TCEP.
The activation properties of compounds for GK may be determined using a black 384-well-plate format under the following reaction conditions: 25 mM Hepes pH 7.2, 25 mM NaCl, 10 mM MgCl2, 0.01% Brij35, 1 mM DTT, 5 μM ATP, 5 mM Glucose 2% DMSO. The amount of ATP consumed may be determined quantitatively by addition of equal volume of luciferase reagent (luciferase+beetle luciferin—KinaseGlo Luminescent Kinase Assay kit from Promega). The luminescence intensity may be measured by using the Analyst HT from LJL Biosystems.
The assay reaction may be initiated as follows: 4 μl of substrate mixture (12.5 μM ATP and 12.5 mM Glucose) was added to each well of the plate, followed by the addition of 2 μl of activator (2 fold serial dilutions for 11 data points for each activator) containing 10% DMSO. 4 μL of 1.25 nM GK solution obtained in Reference Example 3A may be added to initiate the reaction. The reaction mixture may then be incubated at room temperature for 60 min, and quenched and developed by addition of 10 μL of luciferase reagent. Luminescence intensities of the resulting reaction mixtures may be measured after a 10 min incubation at room temperature. The luminescence intensity may be measured by using the Analyst HT from LJL Biosystems.
% ACTmax values may be calculated by non-linear curve fitting of the compound concentrations and luminescence intensities to a standard inhibition/activation equation. % ACTmax represents the calculated maximal gain in GK enzyme activity at a saturating concentration of the compound. % ACTmax values for select compounds of the present invention are given in Table 2.

Row | SMILES | % ACTmax [%]
1 | CC(C)Oc1cc(Oc2ccc(S(C)(=O)=O)cc2)c2[nH]nc(Nc3ccn(C)n3)c2c1 [Example 133, 5-isopropoxy-N-(1-methyl-1H-pyrazol-3-yl)-7-(4-(methylsulfonyl)phenoxy)-1H-indazol-3-amine] | 146.3
2 | CS(=O)(=O)c1ccc(Oc2cc(-c3ncccc3Cl)cc3c(Nc4ccn(CC(O)CO)n4)n[nH]c23)cc1 (centres unmarked) [Example 131, 3-(3-(5-(3-chloropyridin-2-yl)-7-(4-(methylsulfonyl)phenoxy)-1H-indazol-3-ylamino)-1H-pyrazol-1-yl)propane-1,2-diol] | 147.8
3 | COCC(O)Cn1ccc(Nc2n[nH]c3c(Oc4ccc(S(C)(=O)=O)cc4)cc(-c4ncccc4Cl)cc23)n1 (centres unmarked) [Example 140, 1-(3-(5-(3-chloropyridin-2-yl)-7-(4-(methylsulfonyl)phenoxy)-1H-indazol-3-ylamino)-1H-pyrazol-1-yl)-3-methoxypropan-2-ol] | 146.5
4 | CC(C)S(=O)(=O)c1cc(Oc2ccc(S(C)(=O)=O)cc2)c2[nH]nc(Nc3ccn(C)n3)c2c1 [Example 136, 5-(isopropylsulfonyl)-N-(1-methyl-1H-pyrazol-3-yl)-7-(4-(methylsulfonyl)phenoxy)-1H-indazol-3-amine trifluoroacetic acid salt] | 110.9
5 | Cn1ccc(Nc2nn(C)c3c(Oc4ccc(S(C)(=O)=O)cc4)cc(-c4ncccc4Cl)cc23)n1 [Example 134, 5-(3-chloropyridin-2-yl)-1-methyl-N-(1-methyl-1H-pyrazol-3-yl)-7-(4-(methylsulfonyl)phenoxy)-1H-indazol-3-amine] | 24.1
